Source: US20260008760A1, “DIPEPTIDYL PEPTIDASE 1 INHIBITORS AND USES THEREOF” (Insmed Incorporated, priority 2024, published 2026)

How the values were obtained:
DPP1 in HL-60 cells = DPP1 in HL-60 cells (Homo sapiens, UniProt P53634); experiment: DPP1 Cell Single-Point Percent Inhibition Testing; format: cell-based; parameters: host or cells: HL-60 cells; conditions: final compound concentration 5 nM, n = 1
Procedure: Example 100. DPP1 Cell Single-Point Percent Inhibition Testing
HL-60 cells (ATCC; Manassas, VA) were maintained in RPMI-1640 supplemented with 20% heat-inactivated FBS and 1× Antibiotic Antimycotic (Cytiva; Marlborough, MA). Media was changed every three to four days and cells were not allowed to exceed 1×10^6 cells per mL. Prior to assay, cells were collected by centrifugation at 500 rcf for 3 minutes, resuspended in RPMI (with no additional supplements) and counted. Cells were diluted in RPMI to a concentration of 5×10^5 live cells per mL and transferred to black 96-well plates for assay, 60 μL per well. Test articles were diluted to 25 nM in RPMI plus 0.5% DMSO, and 20 μL was added to each assay well. Compound was allowed to pre-incubate with cells with gentle shaking at 100 rpm for 60 minutes at 37° C. in a cell culture incubator maintained at 5% CO2, after which 20 μL of 500 μM H-Gly-Phe-AFC cell-permeable substrate (MP Biomedicals; Solon, OH) in RPMI was added to each well, giving final compound concentration of 5 nM, a final substrate concentration of 100 μM and a final DMSO concentration of 0.1%. Plates were returned to the incubator with shaking at 100 rpm for 30 minutes, after which fluorescence was measured at Excitation/Emission 400/505 nm. Percent Inhibition was calculated from RFU values by first subtracting background values (wells in which RPMI was substituted for cells) from each well, and then subtracting background-subtracted RFU derived from wells that received a final concentration of 10 μM brensocatib. This value represents the non-specific substrate cleavage from the HL-60 cells, and the remaining RFU should theoretically be solely the contribution of DPP1 enzyme activity. The final percent inhibition value was calculated for each test article based on remaining RFU compared to RFU from wells that received only vehicle control.

human DPP1 enzyme = human DPP1 enzyme (Homo sapiens, UniProt P53634); experiment: Human DPP1 Enzyme Single-Point Percent Inhibition Testing (HL-60 lysate); format: biochemical; parameters: A crude lysate of HL-60 cells (ATCC; Manassas, VA) was used as a source of human DPP1 enzyme; host or cells: HL-60 cells (crude lysate); conditions: final compound concentration of 10 nM, 400 μM H-Gly-Arg-AMC, n = 1
Procedure: Example 98. Human DPP1 Enzyme Single-Point Percent Inhibition Testing
A crude lysate of HL-60 cells (ATCC; Manassas, VA) was used as a source of human DPP1 enzyme in the assay. Lysate was prepared in 1% Triton X-100 in PBS at a concentration of 20,000 live cells per μL of lysis buffer and was centrifuged at 16,000 rcf for 10 minutes at 4° C., after which supernatant was collected and flash-frozen in liquid nitrogen. Test articles were applied to human DPP1 enzyme in Assay Buffer (25 mM MES pH 6.0, 50 mM NaCl, 5 mM DTT) in a total reaction volume of 125 μL. 25 μL of compound diluted to 50 nM in Assay Buffer plus 5% DMSO was first added to 50 μL of HL-60 lysate diluted to contain a DPP1 enzyme concentration of roughly 1 ng/μL and allowed to pre-incubate for 10 minutes at 37° C. after which 50 μL of 1000 μM H-Gly-Arg-AMC substrate (Bachem; St. Torrance, CA) was added, giving final compound concentration of 10 nM, a final substrate concentration of 400 μM and a final DMSO concentration of 1%. Substrate cleavage was measured for 90 minutes at 37° C., with fluorescence at Excitation/Emission 350/450 nm measured every 5 minutes. DPP1 concentration was interpolated based on its activity relative to a standard curve of activated human recombinant DPP1 enzyme. Percent inhibition at 10 nM was calculated for each test article based on remaining DPP1 activity compared to enzyme activity in wells that received only vehicle control.

Sequence of human DPP1 enzyme (P53634 25-463): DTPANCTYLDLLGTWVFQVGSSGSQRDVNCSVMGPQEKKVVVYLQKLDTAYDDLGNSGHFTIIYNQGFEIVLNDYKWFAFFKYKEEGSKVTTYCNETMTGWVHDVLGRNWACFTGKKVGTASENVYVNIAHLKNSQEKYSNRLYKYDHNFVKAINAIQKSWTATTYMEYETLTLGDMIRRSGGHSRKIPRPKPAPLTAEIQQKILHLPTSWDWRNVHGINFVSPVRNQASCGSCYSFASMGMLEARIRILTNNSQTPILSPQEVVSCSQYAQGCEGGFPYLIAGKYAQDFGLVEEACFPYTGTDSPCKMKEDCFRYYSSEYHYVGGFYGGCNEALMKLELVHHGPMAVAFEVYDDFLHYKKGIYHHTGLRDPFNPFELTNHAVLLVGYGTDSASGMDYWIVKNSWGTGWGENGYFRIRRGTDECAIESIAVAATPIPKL
Sequence of DPP1 in HL-60 cells (P53634 25-463): as above

SMILES	inhibition at 0.005 µM (DPP1 in HL-60 cells) [%]	inhibition at 0.01 µM (human DPP1 enzyme) [%]
N#Cc1ccc2c(c1)-c1cc(F)c(CC(C#N)NC(=O)[C@@H]3CNCCCCO3)cc1OC2 (stereo partly shown) [Compound B29]	≤ 76.5	≤ 40
N#C[C@H](Cc1cc2c(cc1F)-c1ccc(F)cc1CO2)NC(=O)[C@@H]1CNCCCCO1 [Compound B30]	≤ 76.5	≤ 40
N#CC(Cc1cc2c(cc1F)-c1cc(C3COC3)c(F)cc1CO2)NC(=O)[C@@H]1CNCCCO1 (stereo partly shown) [Compound B31]	76.5 to 93.9	40 to 66.7
N#C[C@H](Cc1cc2c(cc1F)-c1ccc(F)cc1CO2)NC(=O)[C@@H]1CNCCCO1 [Compound B34]	≤ 76.5	40 to 66.7
CO[C@@H]1CCNC[C@@H](C(=O)NC(C#N)Cc2cc3c(cc2F)-c2cc4c(cc2CO3)oc(=O)n4C)OC1 (stereo partly shown) [Compound C11]	76.5 to 93.9	≥ 66.7
COC1CNC[C@@H](C(=O)NC(C#N)Cc2cc3c(cc2F)-c2cc4c(cc2CO3)oc(=O)n4C)OC1 (stereo partly shown) [Compound C14]	≤ 76.5	≥ 66.7
CO[C@H]1CCO[C@H](C(=O)NC(C#N)Cc2cc3c(cc2F)-c2cc4c(cc2CO3)oc(=O)n4C)CNC1 (stereo partly shown) [Compound C16]	≤ 76.5	≥ 66.7
CO[C@H]1CCO[C@H](C(=O)NC(C#N)Cc2cc3c(cc2F)-c2ccc4oc(=O)n(C)c4c2CO3)CNC1 (stereo partly shown) [Compound C17]	≤ 76.5	40 to 66.7
C[C@@H]1NC[C@@H](C(=O)NC(C#N)Cc2cc3c(cc2F)-c2cc4c(cc2CO3)oc(=O)n4C)OC[C@H]1O (stereo partly shown) [Compound C19]	≤ 76.5	≥ 66.7
C[C@@H]1NC[C@@H](C(=O)NC(C#N)Cc2cc3c(cc2F)-c2ccc4oc(=O)n(C)c4c2CO3)OC[C@H]1O (stereo partly shown) [Compound C20]	≤ 76.5	≥ 66.7
C[C@@H]1NC[C@@H](C(=O)NC(C#N)Cc2cc3c(cc2F)-c2cc4c(cc2CO3)oc(=O)n4C)OC[C@@H]1O (stereo partly shown) [Compound C22]	≤ 76.5	≥ 66.7
C[C@@H]1NC[C@@H](C(=O)NC(C#N)Cc2cc3c(cc2F)-c2ccc4oc(=O)n(C)c4c2CO3)OC[C@@H]1O (stereo partly shown) [Compound C23]	≤ 76.5	40 to 66.7
Cn1c(=O)oc2cc3c(cc21)-c1cc(F)c(CC(C#N)NC(=O)[C@@H]2CNCCCCO2)cc1OC3 (stereo partly shown) [Compound C25]	76.5 to 93.9	≥ 66.7
Cn1c(=O)oc2ccc3c(c21)COc1cc(CC(C#N)NC(=O)[C@@H]2CNCCCCO2)c(F)cc1-3 (stereo partly shown) [Compound C26]	≤ 76.5	≤ 40
Cn1c(=O)oc2cc3c(cc21)-c1cc(F)c(CC(C#N)NC(=O)[C@@H]2CNCCCO2)cc1OC3 (stereo partly shown) [Compound C28]	76.5 to 93.9	≥ 66.7
CO[C@@H]1CCNC[C@@H](C(=O)N[C@H](C#N)Cc2ccc(-c3ccc4c(c3)C3(CCCN(C)C3)C(=O)N4C)cc2)OC1 (stereo partly shown) [Compound F7]	≤ 76.5	≥ 66.7
CO[C@@H]1CCNC[C@@H](C(=O)N[C@H](C#N)Cc2ccc(-c3ccc4c(c3)C3(CCN(C)C3)OC4=O)cc2)OC1 (stereo partly shown) [Compound F8]	≤ 76.5	≥ 66.7
CO[C@@H]1CCNC[C@@H](C(=O)N[C@H](C#N)Cc2ccc(-c3ccc4c(c3)C3(CCN(C5COC5)CC3)OC4)cc2)OC1 [Compound F9]	≤ 76.5	≥ 66.7
CO[C@@H]1CCNC[C@@H](C(=O)N[C@H](C#N)Cc2ccc(-c3ccc(CN4CCN(C)CC4)cc3)cc2)OC1 [Compound F10]	≤ 76.5	≥ 66.7

SMILES	inhibition at 0.005 µM (DPP1 in HL-60 cells) [%]	inhibition at 0.01 µM (human DPP1 enzyme) [%]
CO[C@@H]1CCNC[C@@H](C(=O)N[C@H](C#N)Cc2ccc(-c3ccc4c(c3)C3(CC4)CCN(C)CC3)cc2F)OC1 [Compound F11]	≤ 76.5	≥ 66.7
CO[C@@H]1CCNC[C@@H](C(=O)N[C@H](C#N)Cc2ccc(-c3ccc4c(c3)C3(CCCN(C)C3)C(=O)N4C)cc2F)OC1 (stereo partly shown) [Compound F12]	≤ 76.5	≥ 66.7
CO[C@@H]1CCNC[C@@H](C(=O)N[C@H](C#N)Cc2ccc(-c3ccc4c(c3)C3(CCN(C)C3)OC4=O)cc2F)OC1 (stereo partly shown) [Compound F14]	≤ 76.5	≥ 66.7
CO[C@@H]1CCNC[C@@H](C(=O)N[C@H](C#N)Cc2ccc(-c3ccc(CN4CCN(C)CC4)cc3)cc2F)OC1 [Compound F15]	≤ 76.5	≥ 66.7
CO[C@@H]1CCNC[C@@H](C(=O)N[C@H](C#N)Cc2ccc(-c3ccc(S(=O)(=O)N4CCC4)cc3)cc2)OC1 [Compound F16]	≤ 76.5	≥ 66.7
CO[C@@H]1CCNC[C@@H](C(=O)N[C@H](C#N)Cc2ccc(-c3ccc(S(=O)(=O)N4CCC4)cc3)cc2F)OC1 [Compound F17]	≤ 76.5	≥ 66.7
CO[C@H]1CCO[C@H](C(=O)N[C@H](C#N)Cc2ccc(-c3ccc4c(c3)C3(CC4)CCN(C)CC3)cc2)CNC1 [Compound F18]	≤ 76.5	≥ 66.7
CO[C@H]1CCO[C@H](C(=O)N[C@H](C#N)Cc2ccc(-c3ccc4c(c3)C3(CCCN(C)C3)C(=O)N4C)cc2)CNC1 (stereo partly shown) [Compound F19]	≤ 76.5	40 to 66.7
CO[C@H]1CCO[C@H](C(=O)N[C@H](C#N)Cc2ccc(-c3ccc4c(c3)C3(CN(C)C3)OC4=O)cc2)CNC1 [Compound F20]	≤ 76.5	40 to 66.7
CO[C@H]1CCO[C@H](C(=O)N[C@H](C#N)Cc2ccc(-c3ccc4c(c3)C3(CCN(C)C3)OC4=O)cc2)CNC1 (stereo partly shown) [Compound F21]	≤ 76.5	40 to 66.7
CO[C@H]1CCO[C@H](C(=O)N[C@H](C#N)Cc2ccc(-c3ccc4c(c3)C3(CCN(C5COC5)CC3)OC4)cc2)CNC1 [Compound F22]	≤ 76.5	40 to 66.7
CO[C@H]1CCO[C@H](C(=O)N[C@H](C#N)Cc2ccc(-c3ccc(CN4CCN(C)CC4)cc3)cc2)CNC1 [Compound F23]	≤ 76.5	≤ 40
CO[C@H]1CCO[C@H](C(=O)N[C@H](C#N)Cc2ccc(-c3ccc4c(c3)C3(CC4)CCN(C)CC3)cc2F)CNC1 [Compound F24]	≤ 76.5	≥ 66.7
CO[C@H]1CCO[C@H](C(=O)N[C@H](C#N)Cc2ccc(-c3ccc4c(c3)C3(CCCN(C)C3)C(=O)N4C)cc2F)CNC1 (stereo partly shown) [Compound F25]	≤ 76.5	≥ 66.7
CO[C@H]1CCO[C@H](C(=O)N[C@H](C#N)Cc2ccc(-c3ccc4c(c3)C3(CN(C)C3)OC4=O)cc2F)CNC1 [Compound F26]	≤ 76.5	≥ 66.7
CO[C@H]1CCO[C@H](C(=O)N[C@H](C#N)Cc2ccc(-c3ccc4c(c3)C3(CCN(C)C3)OC4=O)cc2F)CNC1 (stereo partly shown) [Compound F27]	≤ 76.5	≥ 66.7
CO[C@H]1CCO[C@H](C(=O)N[C@H](C#N)Cc2ccc(-c3ccc(CN4CCN(C)CC4)cc3)cc2F)CNC1 [Compound F28]	≤ 76.5	≤ 40
CO[C@H]1CCO[C@H](C(=O)N[C@H](C#N)Cc2ccc(-c3ccc(S(=O)(=O)N4CCC4)cc3)cc2)CNC1 [Compound F29]	≤ 76.5	≤ 40
CO[C@H]1CCO[C@H](C(=O)N[C@H](C#N)Cc2ccc(-c3ccc(S(=O)(=O)N4CCC4)cc3)cc2F)CNC1 [Compound F30]	≤ 76.5	40 to 66.7
